Data on 51 compounds can be found in patent publication US10329304B2, “Compounds and methods for inhibition of hedgehog signaling and phosphodiesterase” (Vanderbilt University, priority 2014, dated 2019).

pEC50: −log10 of the molar value. A value given as a limit tells only on which side of the number the result lay.

One experiment concerns Hedgehog signaling (TM3-Gli-Luc). Kind of experiment: TM3-Gli-Luc luciferase reporter assay stimulated with 20 nM SAG. It counts as cell-based.
Conditions: not given
On the procedure:
TM3-Gli-Luc cells were maintained on sterile 0.1% gelatin (from porcine skin, Type A, prepared in MilliQ water, autoclaved, then sterile-filtered) in 1:1 Dulbecco's Modified Eagle Medium (DMEM)/F12 supplemented with 5% horse serum, 2.5% fetal bovine serum (FBS), and 15 mM HEPES, hereafter referred to as TM3 Culture Medium. For small molecule evaluation, TM3-Gli-Luc cells were assayed on 0.1% gelatin in DMEM/F12 supplemented with 2.5% FBS and 15 mM HEPES, hereafter referred to as TM3Luc Medium. Sufu^−/− cells were maintained in DMEM supplemented with 4.5 g/L D-glucose, L-glutamine, 25 mM HEPES, and 10% FBS, hereafter referred to as D10 FBS. For small molecule evaluation, Sufu^−/− cells were assayed in DMEM supplemented with 4.5 g/L D-glucose, L-glutamine, 25 mM HEPES, and 0.5% FBS, hereafter referred to as D0.5 FBS. All cells were cultured at 37° C. with a 5% CO2 atmosphere.
On the day of cell plating, 96-well plates were coated with 50 μL/well of sterile 0.1% gelatin for 5 minutes then aspirated and replaced with 50 μL/well of TM3 Culture Medium. TM3-Gli-Luc cells were seeded at a density of 5,000 cells/well in TM3 Culture Medium and incubated for 24 hours. A master mix of 20 nM SAG in TM3Luc Medium was prepared, and small molecule solutions were prepared by adding the desired amount of compound from 10 mM DMSO stock to TM3Luc Medium containing 20 nM SAG. Negative control was prepared by adding an equi-volume amount of DMSO as compared to small molecule treated conditions to TM3Luc Medium not containing SAG. Cell plating medium was aspirated and replaced with 100 μL/well of prepared small molecule-containing media, and plates were incubated for 48 hours before proceeding to luciferase activity and cell viability reading.
TM3Luc Medium from compound treated plates was aspirated and replaced with 82 μL/well of Glo Lysis Buffer (Promega, Madison, Wis., USA), and plates were shaken at 300 rpm and room temperature for 12 minutes. Lysate was split between two white 96-well plates, 45 μL/well and 25 μL/well for luciferase reading and cell viability respectively. For luciferase activity monitoring, 45 μL/well of Steady Glo (Promega, Madison, Wis., USA) was added to 45 μL/well of cell lysate, incubated at room temperature for 5 minutes, then luminescence was measured on a Turner Biosystems Modulus Microplate Reader (Sunnyvale, Calif., USA) with an integration time of 0.5 seconds. For cell viability measurement, 25 μL/well of Cell Titer Glo (Promega, Madison, Wis., USA) (prepared by 1:10 dilution with Glo Lysis Buffer) was added to 25 μL/well of cell lysate, incubated at room temperature for 5 minutes, then luminescence was measured as above.
Luciferase activity data (Steady Glo) was divided by corresponding cell viability data (Cell Titer Glo) to arrive at a live cell number-normalized luciferase activity reading. The average of negative control data (DMSO treated) was subtracted from all wells, and percent activity was calculated by dividing all wells by the positive control (SAG treated) average. […] At least two independent assays tested on separate days were averaged to provide EC50±standard error of the mean.
On the technique in general: A reporter such as luciferase makes a cellular process visible.
In the case of `C=C(C)Cn1c(SCC(=O)N2CCCC[C@H]2C)nc2sc3c(c2c1=O)CCCC3` [JEH-4-136], the “TM3 G8 Luciferase % Inh., 2 pM” value was found to be 44.3%.

Staying with this experiment, now noted: 0.5 pM as printed.
In the case of `C=C(C)Cn1c(SCC(=O)N2CCCC[C@H]2C)nc2sc3c(c2c1=O)CCCC3` [JEH-4-136], the “TM3 G8 Luciferase % Inh., 0.5 pM” value is on record as 3.7%.

Staying with this experiment, now noted: 20 nM SAG.
As for `C=C(C)Cn1c(SCC(=O)c2cccs2)nccc1=O` [Formula 12], the “Hh inhibitory activity / potency in words” value is on record as “complete loss of Hh inhibitory activity”.

With `C=C(C)Cn1c(SCC(=O)c2cccs2)nccc1=O` [Formula 14a], the “Hh inhibitory activity / potency in words” value was “complete loss of activity”.

With `CC(O)(CSc1nc2sccc2c(=O)n1C1CC1)c1ccccc1` (stereo not drawn) [Formula 20b], the “Hh inhibitory activity / potency in words” value is “only modest potency reductions”.

As to `O=C(COc1nc2sccc2c(=O)n1C1CC1)c1ccccc1` [Formula 22a], the “Hh inhibitory activity / potency in words” value is “complete loss of inhibition”.

`O=C(CNc1nc2sccc2c(=O)n1C1CC1)c1ccccc1` [Formula 22b]: the “Hh inhibitory activity / potency in words” value was “complete loss of inhibition”.

The same experiment, now with this note: 20 nM SAG; read-out: EC50.
`C=C(C)Cn1c(SCC(=O)c2cccs2)nc2sc3c(c2c1=O)CCCC3` [EGM1]: the pEC50 was 5.87.

The experiment is the same for the next values; noted with them: TM3-Gli-Luc reporter line stimulated with 20 nM SAG; mean ± SEM; Table 13; read-out: TM3-Gli-Luc EC50.
For `C=C(C)Cn1c(SCC(=O)c2cccs2)nccc1=O` [Formula 12], the pEC50 is under 4.70.

With `C=C(C)Cn1c(SCC(=O)c2cccs2)nccc1=O` [Formula 14a], the pEC50 was under 4.70.

The experiment is the same for the next values; noted with them: Table 9A; read-out: TM3 G8 Luciferase EC 50.
As for `O=C(CSc1nc2sc3ccccc3c2c(=O)n1C1CC1)c1ccccc1` [JEH-4-055-1], the pEC50 was 4.78.

For `O=C(CSc1nc2sc3ccccc3c2c(=O)n1C1CC1)N1CCCCC1` [JEH-4-055-2], the pEC50 was 5.22.

For the compound `C=C(C)Cn1c(SCCc2cccs2)nc2sc3c(c2c1=O)CCCC3` [JEH-4-135], the pEC50 was 5.26.

As to `C=C(C)Cn1c(SCC(=O)c2cccs2)nc2sc3c(c2c1=O)CCSC3` [JEH-4-143], the pEC50 is 5.60.

As for `C=C(C)Cn1c(NCC(=O)c2cccs2)nc2sc3c(c2c1=O)CCCC3` [JEH-5-052], the pEC50 was 4.60.

As to `Cc1sc2nc(SCC(=O)c3ccccc3)n(C3CC3)c(=O)c2c1C` [JEH-5-087], the pEC50 was 4.50.

The test system of another experiment is zebrafish embryos. Kind of experiment: Zebrafish embryo phenotypic assay (ZF). To be noted: wild-type embryonic zebrafish, dosed 5 hpf. The experiment is classed as in vivo. On the procedure: All zebrafish experiments were approved by Vanderbilt University Institutional Animal Care and Use Committee. Wild-type zebrafish of AB strain were maintained using standard protocols. Chemical screen for small molecules was performed as previously described. Briefly, pairs of zebrafish were mated, and fertilized eggs were arrayed in 96-well microtiter plates (5 embryos/well) containing 250 μl E3 water. At ˜4-hpf, small molecule library from Vanderbilt High Throughput Screening Facility was added to each well to the final concentration of 5 μM. Embryos were incubated at 28.5° C. until 24 and 48-hpf, when they were examined for gross morphologic changes indicative of disruption in embryonic patterning. A total of ˜30,000 compounds were screened.
ZF refers to wild-type embryonic zebrafish phenotypic assay involving dosing n=˜10 embryos in E3 egg water with compound from either a stock of 1 mM or 10 mM in DMSO at 5 hours post-fertilization and observing at 24, 48, and 72 hours post-fertilization.
Take `O=C(CSc1nc2sc3c(c2c(=O)n1-c1ccccn1)CCCC3)c1cccs1` [JEH-1-034]: the “ZF Phenotype EC100” value was determined as 1 µM.

Turning to `O=C(CSc1nc2sc3c(c2c(=O)n1-c1ccc(Br)cc1)CCCC3)c1cccs1` [JEH-1-050-1], the “ZF Phenotype EC100” value is over 50 µM.

Regarding `O=C(CSc1nc2sc3c(c2c(=O)n1-c1ccc(Cl)cn1)CCCC3)c1cccs1` [JEH-1-050-2], the “ZF Phenotype EC100” value came to 25 µM.

`O=C(CSc1nc2sccc2c(=O)n1CC1CC1)c1cccs1` [JEH-1-065-1]: the “ZF Phenotype EC100” value stood at 5 µM.

`O=C(O)c1ccc(-n2c(SCC(=O)c3cccs3)nc3sc4c(c3c2=O)CCCC4)cc1` [JEH-1-066]: the “ZF Phenotype EC100” value was over 50 µM.

In the case of `O=C(CSc1nc2sc3c(c2c(=O)n1C1CC1)CCNC3)c1cccs1` [JEH-1-097], the “ZF Phenotype EC100” value was over 50 µM.

Turning to `O=C(CSc1nc2sccc2c(=O)n1C1CC1)N1CCOCC1` [JEH-1-103], the “ZF Phenotype EC100” value is over 50 µM.

Consider `C=C(C)Cn1c(SCC(=O)N2CCOCC2)nc2sccc2c1=O` [JEH-1-104], for which the “ZF Phenotype EC100” value was over 50 µM.

Take `O=C(CSc1nc2sc3c(c2c(=O)n1C1CC1)CCN(C(=O)C1CC1)C3)c1cccs1` [JEH-1-124]: the “ZF Phenotype EC100” value is over 50 µM.

For `CSc1nc2sc3c(c2c(=O)n1C1CC1)CCCC3` [JEH-1-127], the “ZF Phenotype EC100” value is over 50 µM.

`CSc1nc2sccc2c(=O)n1C1CC1` [JEH-1-131-2]: the “ZF Phenotype EC100” value was over 50 µM.

With `O=c1c2ccsc2nc(SCc2ccccc2)n1C1CC1` [JEH-1-190-1], the “ZF Phenotype EC100” value amounted to 50 µM.

On to `O=c1c2ccsc2nc(SCc2ccc(Br)cc2)n1C1CC1` [JEH-1-190-2], for which the “ZF Phenotype EC100” value stood at 50 µM.

Regarding `CC(C1CC1)n1c(SCC(=O)c2ccccc2)nc2sccc2c1=O` (stereo not drawn) [JEH-2-003], the “ZF Phenotype EC100” value was found to be 30 µM.

Turning to `O=C(CSc1nc2sccc2c(=O)n1CC1CC1)c1ccccc1` [JEH-2-007-1], the “ZF Phenotype EC100” value stood at 10 µM.

As to `COc1ccc(-c2cc3c(=O)n(C4CC4)c(SCC(=O)c4ccccc4)nc3s2)cc1` [JEH-2-018], the “ZF Phenotype EC100” value was over 50 µM.

In the case of `COC(=O)c1cc(-c2ccc(F)cc2)sc1NC(=S)NC1CC1` [JEH-2-026], the “ZF Phenotype EC100” value is 25 µM.

For the compound `O=C(CSc1nc2sc(-c3ccc(F)cc3)cc2c(=O)n1C1CC1)c1ccccc1` [JEH-2-034], the “ZF Phenotype EC100” value was over 50 µM.

Take `CC(C1CC1)n1c(SCC(=O)Nc2ccccn2)nc2sccc2c1=O` (stereo not drawn) [JEH-2-041-1]: the “ZF Phenotype EC100” value is 20 µM.

For the compound `CC(C1CC1)n1c(SCC(=O)Nc2ccccc2O)nc2sccc2c1=O` (stereo not drawn) [JEH-2-041-2], the “ZF Phenotype EC100” value stood at 30 µM.

For the compound `C#CCNC(=O)CSc1nc2sc3c(c2c(=O)n1CC(=C)C)CCCC3` [JEH-2-060], the “ZF Phenotype EC100” value came out at 30 µM.

With `C=C(C)Cn1c(SCC(=O)c2cc3ccccc3s2)nc2sc3c(c2c1=O)CCCC3` [KK-14-093-1], the “ZF Phenotype EC100” value was over 50 µM.

For the compound `C=C(C)Cn1c(SCC(=O)c2cc3ccccc3o2)nc2sc3c(c2c1=O)CCCC3` [KK-14-094-1], the “ZF Phenotype EC100” value is over 50 µM.

Take `C=C(C)Cn1c(SCC(=O)c2ccc(Cl)s2)nc2sc3c(c2c1=O)CCCC3` [KK-14-094-2]: the “ZF Phenotype EC100” value was over 50 µM.

Regarding `C=C(C)Cn1c(SCc2nc3ccc(Cl)cc3o2)nc2sc3c(c2c1=O)CCCC3` [KK-14-094-3], the “ZF Phenotype EC100” value was over 50 µM.

Turning to `C=C(C)Cn1c(SCc2nc3ccc(C(=O)O)cc3[nH]2)nc2sc3c(c2c1=O)CCCC3` [KK-14-096-1], the “ZF Phenotype EC100” value was over 50 µM.

In the case of `C=C(C)Cn1c(SCc2nc3cc(OC)ccc3o2)nc2sc3c(c2c1=O)CCCC3` [KK-14-096-2], the “ZF Phenotype EC100” value was over 50 µM.

`C=C(C)Cn1c(SCc2nc3ccc(S(=O)(=O)Nc4ccccc4OC)cc3[nH]2)nc2sc3c(c2c1=O)CCCC3` [KK-093-2]: the “ZF Phenotype EC100” value was over 50 µM.

On to `O=C(CSc1nc2sc3c(c2c(=O)n1C1CC1)CCN(C(=O)c1ccc(Cl)cc1)C3)c1ccccc1` [KYK-1-54], for which the “ZF Phenotype EC100” value is over 50 µM.

Turning to `O=C(CSc1nc2sc3c(c2c(=O)n1C1CC1)CCN(S(=O)(=O)c1ccc(Cl)cc1)C3)c1ccccc1` [KYK-1-58], the “ZF Phenotype EC100” value was over 50 µM.

As to `O=C(CSc1nc2sc3c(c2c(=O)n1C1CC1)CCN(S(=O)(=O)c1ccc([N+](=O)[O-])cc1)C3)c1ccccc1` [KYK-1-61], the “ZF Phenotype EC100” value was over 50 µM.

Consider `Cn1cnc(S(=O)(=O)N2CCc3c(sc4nc(SCC(=O)c5ccccc5)n(C5CC5)c(=O)c34)C2)c1` [KYK-1-66], for which the “ZF Phenotype EC100” value was over 50 µM.

As for `COC(=O)c1c(NC(=S)SC)sc2c1CCNC2` [KYK-1-87], the “ZF Phenotype EC100” value is over 50 µM.

Turning to `O=C(CSc1nc2sc3c(c2c(=O)n1C1CC1)CCN(CCCc1ccccc1)C3)c1ccccc1` [KYK-1-88], the “ZF Phenotype EC100” value is over 50 µM.

As for `COC(=O)c1c(NC(=S)NC2CC2)sc2c1CCNC2` [KYK-1-96], the “ZF Phenotype EC100” value was over 50 µM.

`O=c1c2c3c(sc2[nH]c(=S)n1C1CC1)CNCC3` [KYK-1-99]: the “ZF Phenotype EC100” value was over 50 µM.

`O=C(CSc1nc2sc3c(c2c(=O)n1C1CC1)CCN(Cc1ccco1)C3)c1ccccc1` [KYK-1-103-1]: the “ZF Phenotype EC100” value is over 50 µM.

Consider `CCCCN1CCc2c(sc3nc(SCC(=O)c4ccccc4)n(C4CC4)c(=O)c23)C1` [KYK-1-103-2], for which the “ZF Phenotype EC100” value is over 50 µM.
